The values below come from ChEMBL document CHEMBL5352475, “Design, synthesis, and biological evaluation of novel glutaminase 1 allosteric inhibitors with an alkane chain tail group” (Eur J Med Chem, 2023).

Data set [1] in a line: Metabolic stability in human liver microsomes assessed as half life by LC-MS/MS analysis. It counts as ADME, Microsome. Background: Microsomes from liver hold many membrane-bound enzymes, among them those of drug oxidation.
The test system of data set [2] is HCT-116. Description: Induction of apoptosis in human HCT-116 cells assessed as total apoptotic cells at 10 uM measured after 24 hrs by FITC annexin-V/PI staining based flow cytometric analysis relative to control. In kind it is functional.
The nature of data set [3]: Toxicity in BALB/c nude mouse xenografted with human HCT-116 cells assessed as as body weight loss at 100 mg/kg, ip upto 20 days. In kind it is organism-based. To be noted: in vivo, 480 h, time < 20 day. (Xenograft models place foreign cells or tissue in a host animal.)
Data set [4] can be described thus: Toxicity in BALB/c nude mouse xenografted with human HCT-116 cells assessed as change in cell structure in kidney at 100 mg/kg, ip upto 20 days. It counts as organism-based. Conditions: in vivo, 480 h, time < 20 day.
Data set [5] in a line: Toxicity in BALB/c nude mouse xenografted with human HCT-116 cells assessed as change in cell structure in lung at 100 mg/kg, ip upto 20 days. Conditions: in vivo, 480 h, time < 20 day. In kind it is organism-based.
Data set [6] can be described thus: Toxicity in BALB/c nude mouse xenografted with human HCT-116 cells assessed as change in cell morphology in lung at 100 mg/kg, ip upto 20 days. It counts as organism-based. To be noted: in vivo, 480 h, time < 20 day.
Data set [7] deals with HCT-116. Description: Induction of apoptosis in human HCT-116 cells assessed as early apoptotic cells at 10 uM measured after 24 hrs by FITC annexin-V/PI staining based flow cytometric analysis (reference value: 3.73%). In kind it is functional. A general note: In flow cytometry, cells or beads pass a laser one at a time.
Data set [8] relates to HCT-116. Description: Antitumor activity against human HCT-116 cells xenografted in BALB/c nude mouse assessed as tumor growth inhibition at 100 mg/kg, ip for 20 days relative to control. It counts as functional. To be noted: time 20 day.
The test system of data set [9] is HCT-116. Description: Induction of apoptosis in human HCT-116 cells assessed as early apoptotic cells at 1 uM measured after 24 hrs by FITC annexin-V/PI staining based flow cytometric analysis (reference value: 3.73%). In kind it is functional.
Data set [10] deals with T1, Glutaminase kidney isoform, mitochondrial (Homo sapiens, UniProt O94925).
T1 sequence (O94925 whole entry): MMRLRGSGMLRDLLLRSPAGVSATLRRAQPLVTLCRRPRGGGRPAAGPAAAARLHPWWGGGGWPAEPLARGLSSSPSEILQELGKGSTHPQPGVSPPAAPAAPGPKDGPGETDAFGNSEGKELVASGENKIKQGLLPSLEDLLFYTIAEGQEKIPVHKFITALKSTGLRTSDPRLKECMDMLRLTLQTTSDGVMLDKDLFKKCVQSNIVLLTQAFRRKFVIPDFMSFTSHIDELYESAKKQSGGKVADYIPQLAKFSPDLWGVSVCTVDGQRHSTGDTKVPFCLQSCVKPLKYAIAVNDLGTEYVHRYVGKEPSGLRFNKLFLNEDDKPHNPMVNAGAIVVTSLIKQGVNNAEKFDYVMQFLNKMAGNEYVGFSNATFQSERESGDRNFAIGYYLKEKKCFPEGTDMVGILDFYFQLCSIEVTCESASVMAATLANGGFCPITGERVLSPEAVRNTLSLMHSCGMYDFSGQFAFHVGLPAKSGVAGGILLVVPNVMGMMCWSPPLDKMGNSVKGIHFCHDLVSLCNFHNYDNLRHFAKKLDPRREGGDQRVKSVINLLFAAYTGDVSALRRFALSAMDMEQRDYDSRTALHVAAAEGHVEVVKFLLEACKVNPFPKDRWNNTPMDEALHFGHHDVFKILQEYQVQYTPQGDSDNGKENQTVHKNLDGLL
Description: Inhibition of GLS1 (unknown origin) preincubated for 10 mins followed by glutamine addition measured after 60 mins.

Data set [11] deals with HCT-116. Description: Induction of apoptosis in human HCT-116 cells assessed as late apoptotic cells at 10 uM measured after 24 hrs by FITC annexin-V/PI staining based flow cytometric analysis (reference value: 5.41%). In kind it is functional.
Data set [12] is described as follows: Toxicity in BALB/c nude mouse xenografted with human HCT-116 cells assessed as obvious tissue lesion in spleen at 100 mg/kg, ip upto 20 days. It counts as organism-based. Conditions: in vivo, 480 h, time < 20 day.
Data set [13] deals with HCT-116. Description: Induction of apoptosis in human HCT-116 cells assessed as late apoptotic cells at 0.3 uM measured after 24 hrs by FITC annexin-V/PI staining based flow cytometric analysis (reference value: 5.41%). In kind it is functional.
The nature of data set [14]: Toxicity in BALB/c nude mouse xenografted with human HCT-116 cells assessed as change in cell morphology in heart at 100 mg/kg, ip upto 20 days. Conditions: in vivo, 480 h, time < 20 day. In kind it is organism-based.
The target in data set [15] is T2, Glutaminase kidney isoform, mitochondrial (Homo sapiens) (UniProt O94925).
T2 sequence (whole entry): T1 sequence (O94925 whole entry)
Description: Stabilization of GLS1 (unknown origin) assessed as change in melting temperature by protein thermal assay

For data set [16], the system named is HCT-116. Description: Induction of apoptosis in human HCT-116 cells assessed as early apoptotic cells at 0.3 uM measured after 24 hrs by FITC annexin-V/PI staining based flow cytometric analysis (reference value: 3.73%). It counts as functional.
A short description of data set [17]: Toxicity in BALB/c nude mouse xenografted with human HCT-116 cells assessed as change in cell structure in liver at 100 mg/kg, ip upto 20 days. It counts as organism-based. Conditions: in vivo, 480 h, time < 20 day.
Data set [18] has as its system HCT-116. Description: Induction of apoptosis in human HCT-116 cells assessed as late apoptotic cells at 0.1 uM measured after 24 hrs by FITC annexin-V/PI staining based flow cytometric analysis (reference value: 5.41%). In kind it is functional.
Data set [19] relates to HCT-116. Description: Induction of apoptosis in human HCT-116 cells assessed as late apoptotic cells at 1 uM measured after 24 hrs by FITC annexin-V/PI staining based flow cytometric analysis (reference value: 5.41%). In kind it is functional.
Data set [20] concerns HCT-116. Description: Antiproliferative activity against human HCT-116 cells in presence of alpha-ketoglutarate. In kind it is functional, cell-based.
Data set [21] can be described thus: Toxicity in BALB/c nude mouse xenografted with human HCT-116 cells assessed as obvious tissue lesion in liver at 100 mg/kg, ip upto 20 days. It counts as organism-based. To be noted: in vivo, 480 h, time < 20 day.
Data set [22] in a line: Toxicity in BALB/c nude mouse xenografted with human HCT-116 cells assessed as change in cell morphology in liver at 100 mg/kg, ip upto 20 days. In kind it is organism-based. To be noted: in vivo, 480 h, time < 20 day.
The subject of data set [23] is HCT-116. Description: Induction of apoptosis in human HCT-116 cells assessed as early apoptotic cells at 3 uM measured after 24 hrs by FITC annexin-V/PI staining based flow cytometric analysis (reference value: 3.73%). In kind it is functional.
Data set [24] in a line: Toxicity in BALB/c nude mouse xenografted with human HCT-116 cells assessed as change in cell structure in heart at 100 mg/kg, ip upto 20 days. In kind it is organism-based. To be noted: in vivo, 480 h, time < 20 day.
Data set [25] in a line: Metabolic stability in human liver microsomes assessed as clearance measured upto 120 mins by LC-MS/MS analysis. It counts as ADME, Microsome. To be noted: read-out: CLH.
The subject of data set [26] is HCT-116. Description: cells. Conditions: Homo sapiens, HCT-116, 72 h.
Description: Antiproliferative activity against human HCT-116 cells incubated for 72 hrs by MTT assay
Data set [27] can be described thus: Toxicity in BALB/c nude mouse xenografted with human HCT-116 cells assessed as change in cell morphology in spleen at 100 mg/kg, ip upto 20 days. In kind it is organism-based. To be noted: in vivo, 480 h, time < 20 day.
For data set [28], the system named is HCT-116. Description: Induction of apoptosis in human HCT-116 cells assessed as early apoptotic cells at 0.1 uM measured after 24 hrs by FITC annexin-V/PI staining based flow cytometric analysis (reference value: 3.73%). It counts as functional.
Data set [29] in a line: Toxicity in BALB/c nude mouse xenografted with human HCT-116 cells assessed as obvious tissue lesion in heart at 100 mg/kg, ip upto 20 days. In kind it is organism-based. Conditions: in vivo, 480 h, time < 20 day.
The nature of data set [30]: Toxicity in BALB/c nude mouse xenografted with human HCT-116 cells assessed as change in cell morphology in kidney at 100 mg/kg, ip upto 20 days. It counts as organism-based. To be noted: in vivo, 480 h, time < 20 day.
A short description of data set [31]: Toxicity in BALB/c nude mouse xenografted with human HCT-116 cells assessed as obvious tissue lesion in kidney at 100 mg/kg, ip upto 20 days. It counts as organism-based. Conditions: in vivo, 480 h, time < 20 day.
Data set [32] is described as follows: Toxicity in BALB/c nude mouse xenografted with human HCT-116 cells assessed as change in cell structure in spleen at 100 mg/kg, ip upto 20 days. In kind it is organism-based. To be noted: in vivo, 480 h, time < 20 day.
Data set [33] concerns HCT-116. Description: Induction of apoptosis in human HCT-116 cells assessed as late apoptotic cells at 3 uM measured after 24 hrs by FITC annexin-V/PI staining based flow cytometric analysis (reference value: 5.41%). It counts as functional.
The nature of data set [34]: Toxicity in BALB/c nude mouse xenografted with human HCT-116 cells assessed as obvious tissue lesion in lung at 100 mg/kg, ip upto 20 days. It counts as organism-based. Conditions: in vivo, 480 h, time < 20 day.
Data set [35] in a line: Toxicity in BALB/c nude mouse xenografted with human HCT-116 cells assessed as partial pyknosis of nuclei in liver at 100 mg/kg, ip upto 20 days. In kind it is organism-based. Conditions: in vivo, 480 h, time < 20 day.
Data set [36] in a line: Toxicity in BALB/c nude mouse xenografted with human HCT-116 cells assessed as hyperplasia of renal tubular epithelium in kidney at 100 mg/kg, ip upto 20 days. It counts as organism-based. To be noted: in vivo, 480 h, time < 20 day.
A short description of data set [37]: Toxicity in BALB/c nude mouse xenografted with human HCT-116 cells assessed as cytoplasmic acidophilia in liver at 100 mg/kg, ip upto 20 days. In kind it is organism-based. Conditions: in vivo, 480 h, time < 20 day.
Data set [38] can be described thus: Toxicity in BALB/c nude mouse xenografted with human HCT-116 cells assessed as degeneration of hepatocyte in liver at 100 mg/kg, ip upto 20 days. In kind it is organism-based. Conditions: in vivo, 480 h, time < 20 day.
Data set [39] is described as follows: Toxicity in BALB/c nude mouse xenografted with human HCT-116 cells assessed as prominent of nucleolus in liver at 100 mg/kg, ip upto 20 days. To be noted: in vivo, 480 h, time < 20 day. It counts as organism-based.
Data set [40] in a line: Toxicity in BALB/c nude mouse xenografted with human HCT-116 cells assessed as proliferation of hepatocyte in liver at 100 mg/kg, ip upto 20 days. It counts as organism-based. To be noted: in vivo, 480 h, time < 20 day.

For the compound `CCCCOc1cccc(CC(=O)Nc2ccc(N3CCC(Nc4nnc(NC(=O)CCCC)s4)CC3)nn2)c1`, in [1], the half-life (commonly how long it takes for the measured level to halve) was found to be 1.8 h. Further, the Activity in data set [2] is roughly 30%; in data set [3], “Non-Toxic”; in data set [4] it was “Non-Toxic”; in [5], “Non-Toxic”; in data set [6], “Non-Toxic”; in data set [7] it was 8.52%. Further, the Activity in data set [9] is on record as 5.84%; in data set [11], 20.5%; in [12], “Non-Toxic”; in [13], 9.88%; in data set [14] it was “Non-Toxic”; in data set [16], 5.76%. In addition, the Activity entry in data set [17] was “Non-Toxic”; in data set [18], 7.63%; in data set [19], 12.3%; in [21], “Non-Toxic”; in data set [22], “Non-Toxic”; in data set [23], 6.54%. For the same compound, the Activity result in [24] is listed as “Non-Toxic”; in data set [27], “Non-Toxic”; in [28], 4.9%; in data set [29] it was “Non-Toxic”; in [30], “Non-Toxic”; in data set [31], “Non-Toxic”. For the same compound, the Activity entry in [32] is reported as “Non-Toxic”; in [33], 17.2%; in data set [34], “Non-Toxic”. Besides, in data set [8], the tumour growth inhibition (TGI) (as a rule, how far tumour growth fell short of that in controls) is given as 38.9%. For the same compound, the half-inhibitory concentration (IC50) – broadly, the concentration that inhibits the measured activity by half – in data set [10] was 7 nM; in data set [20], 41500 nM; in data set [26], 61 nM. Further, the ΔTm (as a rule, the change in melting temperature against a reference sample) in [15] was 15.1 °C. For the same compound, the microsomal CLint in [25] worked out at 32 µL/min/mg.

As for `O=C(Cc1cccc(OC(F)(F)F)c1)Nc1ccc(CCCCc2nnc(NC(=O)Cc3ccccn3)s2)nn1`, the half-life in [1] was determined as 1.65 h. For the same compound, the Activity result in data set [3] is given as “Non-Toxic”; in data set [35] it was “Toxic”; in data set [36] it was “Toxic”; in [37] it was “Toxic”; in data set [38], “Toxic”; in [39], “Toxic”. For the same compound, the Activity entry in data set [40] is “Toxic”. In addition, the TGI in data set [8] came out at 43.7%. Also, the microsomal CLint in data set [25] was 35 µL/min/mg. The compound further displayed a 50% inhibitory concentration (IC50) in [26] of 560 nM.
